Source: patent US12233161B1, “Lipids and lipid nanoparticle formulations” (LONGUIDE BIOPHARMA CORPORATION, priority 2024, dated 2025)
Blank lines part the entries; values can stand above or below the molecule they belong to.

Columns and labels:
[1] = Particle size and PDI of nucleic acid lipid nanoparticle preparations by dynamic light scattering; type: physicochemical
Protocol: The 7.5 μL nucleic acid lipid nanoparticle solution (containing approximately 0.04 mg/mL mRNA) was taken and added with 200 μL ultrapure water, mixed by gentle blowing using a pipette tip, and the particle size of the nanopreparation was detected by dynamic lightscattering (DLS) using a Malvern Dynamic Light Scattering Instrument (Malvern Instruments Ltd., ZEN3700, UK).
27.5 μL nucleic acid lipid nanoparticle solution (containing about 0.04 mg/mL mRNA) was taken and added with 200 μL ultrapure water. A pipette tip was used to gently blow the sample and mix well. The particle size of the nanopreparation was detected by Malvern Dynamic Light Scattering Instrument (Malvern Instruments Ltd., ZEN3700, UK). After the detection, the sample was recovered to an EP tube, and 600 μL of ultrapure water was added, gently blown with a pipette tip, and the potential of the nanopreparation was measured by a Malvern particle size meter.

[2] = tested on: mice; experiment: In vivo delivery of FLuc-mRNA lipid nanoparticles in mice, in vivo imaging (IVIS)
How it was run: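 Mice (n=3) received about 75 μL FLuc-mRNA LNP per mouse intramuscularly (rectus femoris), intravenously (tail vein), intraperitoneally or subcutaneously (back). After injection, D-luciferin (200 μL, 15 mg/mL) was given i.p. 10-15 min before IVIS imaging.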

[3] = DMG-PEG2000:DSPC:Chol:Lipid 1.09:8.66:30.25:60.00, N/P 13.3, mRNA LNP
[4] = DMG-PEG2000:DSPC:Chol:Lipid 1.40:11.15:38.95:48.50, N/P 13.3, mRNA LNP
[5] = DMG-PEG2000:DSPC:Chol:Lipid 1.40:11.15:38.95:48.50, N/P 16.7, mRNA LNP
[6] = DMG-PEG2000:DSPC:Chol:Lipid 1.00:16.00:48.00:35.00, N/P 18, mRNA LNP
[7] = DMG-PEG2000:DSPC:Chol:Lipid 1.50:4.00:69.50:25.00, N/P 18, mRNA LNP
[8] = DMG-PEG2000:DSPC:Chol:Lipid 1.50:16.00:17.50:65.00, N/P 45, mRNA LNP
[9] = DMG-PEG2000:DSPC:Chol:Lipid 1.77:14.07:49.16:35.00, N/P 30, mRNA LNP
[10] = DMG-PEG2000:DSPC:Chol:Lipid 1.00:16.00:48.00:35.00, N/P 18, IV, liver
[11] = DMG-PEG2000:DSPC:Chol:Lipid 1.00:16.00:48.00:35.00, N/P 18, IV, lung
[12] = DMG-PEG2000:DSPC:Chol:Lipid 1.00:16.00:48.00:35.00, N/P 18, IV, spleen
[13] = DMG-PEG2000:DSPC:Chol:Lipid 1.50:16.00:17.50:65.00, N/P 45, IV, liver
[14] = DMG-PEG2000:DSPC:Chol:Lipid 1.50:16.00:17.50:65.00, N/P 45, IV, lung
[15] = DMG-PEG2000:DSPC:Chol:Lipid 1.50:16.00:17.50:65.00, N/P 45, IV, spleen
[16] = DMG-PEG2000:DSPC:Chol:Lipid 0.95:7.58:26.47:65.00, N/P 18, mRNA LNP
[17] = DMG-PEG2000:DSPC:Chol:Lipid 1.40:11.15:38.95:48.50, N/P 18, mRNA LNP

PDI [1, 3]: 0.06 ± 0.01 | Particle size [1, 3]: 145.73 ± 2.21 nm | PDI [1, 4]: 0.04 ± 0.03 | Particle size [1, 4]: 124.63 ± 0.70 nm
Structure (SMILES): CCCCCCOCOCCCCCCOC(=O)C(O)CN(CCCN(C)CCCN(CC(O)C(=O)OCCCCCCOCOCCCCCC)CC(O)C(=O)OCCCCCCOCOCCCCCC)CC(O)C(=O)OCCCCCCOCOCCCCCC (stereo not shown) [Compound L0271]
IVIS ([2]; DMG-PEG2000:DSPC:Chol:Lipid 1.09:8.66:30.25:60.00, N/P 13.3, IM, whole body scan): 3.27 × 10^6 | IVIS ([2]; DMG-PEG2000:DSPC:Chol:Lipid 1.40:11.15:38.95:48.50, N/P 13.3, IV, whole body scan): 4.16 × 10^8

PDI [1, 5]: 0.09 ± 0.02 | Particle size [1, 5]: 137.20 ± 0.61 nm
Structure (SMILES): CCCCCCOCOCCCCCCOC(=O)C(O)CN(CCN(C)CCN(CC(O)C(=O)OCCCCCCOCOCCCCCC)CC(O)C(=O)OCCCCCCOCOCCCCCC)CC(O)C(=O)OCCCCCCOCOCCCCCC (stereo not shown) [Compound L0272]
IVIS ([2]; DMG-PEG2000:DSPC:Chol:Lipid 1.40:11.15:38.95:48.50, N/P 16.7, IM, whole body scan): 9.96 × 10^7 | IVIS ([2]; DMG-PEG2000:DSPC:Chol:Lipid 1.40:11.15:38.95:48.50, N/P 16.7, IV, whole body scan): 9.45 × 10^8 | in vivo delivery efficiency as compared to the benchmark compound SM102 ([2]; certain formulations, Table 2): superior in vivo delivery efficiency

PDI [1, 6]: 0.15 ± 0.01 | Particle size [1, 6]: 93.07 ± 0.26 nm | PDI [1, 7]: 0.12 ± 0.00 | Particle size [1, 7]: 88.12 ± 0.68 nm | PDI [1, 8]: 0.47 ± 0.04 | Particle size [1, 8]: 232.87 ± 6.17 nm | PDI [1, 9]: 0.13 ± 0.01 | Particle size [1, 9]: 79.38 ± 0.91 nm
Structure (SMILES): CCCCCCCCCCCCNC(=O)C(O)CN(CCCN(CCCCCCO)CCCN(CC(O)C(=O)NCCCCCCCCCCCC)CC(O)C(=O)NCCCCCCCCCCCC)CC(O)C(=O)NCCCCCCCCCCCC (stereo not shown) [Compound L0274]
IVIS ([2]; DMG-PEG2000:DSPC:Chol:Lipid 1.00:16.00:48.00:35.00, N/P 18, IV, body): 3.12 × 10^8 | % of organ targeting [2, 10]: 29.22% | IVIS [2, 10]: 4.76 × 10^7 | % of organ targeting [2, 11]: 8.16% | IVIS [2, 11]: 1.33 × 10^7 | % of organ targeting [2, 12]: 62.62% | IVIS [2, 12]: 1.02 × 10^8 | IVIS ([2]; DMG-PEG2000:DSPC:Chol:Lipid 1.50:4.00:69.50:25.00, N/P 18, IM, whole body scan): 6.20 × 10^6 | IVIS ([2]; DMG-PEG2000:DSPC:Chol:Lipid 1.50:16.00:17.50:65.00, N/P 45, IV, body): 1.52 × 10^8 | % of organ targeting [2, 13]: 1.10% | IVIS [2, 13]: 4.17 × 10^6 | % of organ targeting [2, 14]: 84.18% | IVIS [2, 14]: 3.19 × 10^8 | % of organ targeting [2, 15]: 14.72% | IVIS [2, 15]: 5.58 × 10^7 | IVIS ([2]; DMG-PEG2000:DSPC:Chol:Lipid 1.77:14.07:49.16:35.00, N/P 30, IM, whole body scan): 1.23 × 10^7 | in vivo delivery efficiency as compared to the benchmark compound SM102 ([2]; certain formulations, Table 2): superior in vivo delivery efficiency | tissue-targeting specificity (lung vs spleen depending on molar percentage of compound) ([2]; certain formulations, Table 2): strong tissue-targeting specificity

PDI [1, 16]: 0.13 ± 0.01 | Particle size [1, 16]: 121.27 ± 0.93 nm | PDI [1, 17]: 0.17 ± 0.01 | Particle size [1, 17]: 85.45 ± 0.70 nm
Structure (SMILES): CCCCCCCCCCOC(=O)C(O)CN(C)CCN(C)CCN(C)CC(O)C(=O)OCCCCCCCCCC (stereo not shown) [Compound L0275]
IVIS ([2]; DMG-PEG2000:DSPC:Chol:Lipid 0.95:7.58:26.47:65.00, N/P 18, IM, whole body scan): 1.47 × 10^6 | IVIS ([2]; DMG-PEG2000:DSPC:Chol:Lipid 1.40:11.15:38.95:48.50, N/P 18, IV, whole body scan): 4.52 × 10^5
